# Assay results taken from patent publication US7671238B2, “Arylamino-arylpropanolamine derivatives and methods of their use” (Wyeth LLC, priority 2006, dated 2010).
# Counter-ions that a name gives are not always drawn.
# Molecular target: T1, hNET (Homo sapiens, UniProt P23975)
# T1 construct: expressed in transfected cells; host or cells: MDCK-Net6 (MDCK cells stably transfected with hNET)
# Experiment: Norepinephrine (NE) uptake assay in MDCK-Net6 cells
# Assay type: cell-based
# Settings: 1 μM test compound; MDCK-Net6 cells stably transfected with human hNET; [3H]NE uptake
# Method: Cells were plated at 300,000 T75 flask and cells were split twice weekly. […] Cells were plated at 250,000 cells/T75 flask and split twice weekly.
# On day 1, cells were plated at 3,000 cells/well in growth medium and maintained in a cell incubator (37° C., 5% CO2). On day 2, growth medium was replaced with […] of assay buffer (25 mM HEPES; 120 mM NaCl; 5 mM KCl; 2.5 mM CaCl2; 1.2 mM MgSO4; 2 mg/ml glucose (pH 7.4, 37° C.)) containing 0.2 mg/ml ascorbic acid and […]. Plates containing cells with […] of assay buffer were equilibrated for 10 minutes at 37° C. prior to addition of compounds. A stock solution of desipramine was prepared in DMSO (10 mM) and delivered to triplicate wells containing cells for a final test concentration of 1 μM. Data from these wells were used to define non-specific NE uptake (minimum NE uptake). Test compounds were prepared in DMSO (10 mM) and diluted in assay buffer according to test range (1 to 10,000 nM). Twenty-five microliters of assay buffer (maximum NE uptake) or test compound were added directly to triplicate wells containing cells in 200 μl of assay buffer. The cells in assay buffer with test compounds were incubated for 20 minutes at 37° C. To initiate the NE uptake, [^3H]NE diluted in assay buffer (120 nM final assay concentration) was delivered in 25 μl aliquots to each well and the plates were incubated for 5 minutes (37° C.). The reaction was terminated by decanting the supernatant from the plate. The plates containing cells were washed twice with 200 μl assay buffer (37° C.) to remove free radioligand. The plates were then inverted, left to dry for 2 minutes, then reinverted and air-dried for an additional 10 minutes. The cells were lysed in 25 μl of 0.25 N NaOH solution (4° C.), placed on a shake table and vigorously shaken for 5 minutes. After cell lysis, 75 μl of scintillation cocktail was added to each well and the plates were sealed with film tape. The plates were returned to the shake table and vigorously shaken for a minimum of 10 minutes to ensure adequate partitioning of organic and aqueous solutions. The plates were counted in a Wallac Microbeta counter (PerkinElmer) to collect the raw cpm data.
# For each experiment, a data stream of cpm values collected from the Wallac Microbeta counter was downloaded to a Microsoft Excel statistical application program. Calculations of EC50 values were made using the transformed-both-sides logistic dose response program written by Wyeth Biometrics Department.
# T1 sequence (P23975 whole entry): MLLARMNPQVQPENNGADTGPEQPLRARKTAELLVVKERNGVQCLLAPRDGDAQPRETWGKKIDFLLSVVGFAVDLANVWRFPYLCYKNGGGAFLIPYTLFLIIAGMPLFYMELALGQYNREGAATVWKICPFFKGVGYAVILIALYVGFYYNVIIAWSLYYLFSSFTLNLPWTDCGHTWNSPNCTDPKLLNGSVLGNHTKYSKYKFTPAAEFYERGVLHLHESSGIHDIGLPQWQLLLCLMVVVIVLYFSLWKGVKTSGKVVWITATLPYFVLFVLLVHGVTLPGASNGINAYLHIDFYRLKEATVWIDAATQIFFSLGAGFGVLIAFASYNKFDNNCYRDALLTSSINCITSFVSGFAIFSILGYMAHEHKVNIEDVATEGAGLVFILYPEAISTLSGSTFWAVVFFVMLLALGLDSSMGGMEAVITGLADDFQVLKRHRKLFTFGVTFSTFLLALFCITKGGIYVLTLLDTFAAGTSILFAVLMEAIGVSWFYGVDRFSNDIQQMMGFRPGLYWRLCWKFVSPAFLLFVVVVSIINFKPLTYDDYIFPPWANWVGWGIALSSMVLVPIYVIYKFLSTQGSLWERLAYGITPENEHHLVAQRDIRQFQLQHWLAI
row,SMILES,inhibition at 1 µM [%]
1,"CCNC[C@@H](O)[C@H](c1ccc(Cl)cc1)N(C)c1ccccc1 (racemic) [Example 31, (1RS,2SR)-1-(4-chlorophenyl)-3-(ethylamino)-1-[methyl(phenyl)amino]propan-2-ol hydrochloride]",88
2,"CCNC[C@@H](O)[C@H](c1ccccc1)N(C)c1ccc(C)cc1 (racemic) [Example 28, (1RS,2SR)-3-(ethylamino)-1-[methyl(4-methylphenyl)amino]-1-phenylpropan-2-ol hydrochloride]",71
3,"CNC[C@@H](O)[C@H](c1ccc(OC)cc1)N(C)c1ccc(OC)cc1 (racemic) [Example 26, (1RS,2SR)-1-(4-methoxyphenyl)-1-[(4-methoxyphenyl)(methyl)amino]-3-(methylamino)propan-2-ol hydrochloride]",75
4,"CNC[C@@H](O)[C@H](c1cccc(F)c1)N(C)c1ccc(Cl)cc1 (racemic) [Example 23, (1RS,2SR)-1-[(4-chlorophenyl)(methyl)amino]-1-(3-fluorophenyl)-3-(methylamino)propan-2-ol hydrochloride]",99
5,"Cc1cccc(N(C)[C@@H](c2ccccc2)[C@H](O)CN)c1 (racemic) [Example 2, (1RS,2SR)-3-amino-1-[methyl(3-methylphenyl)amino]-1-phenylpropan-2-ol hydrochloride]",92
6,"CNC[C@@H](O)[C@H](c1ccc(OC)cc1)N(C)c1cccc(F)c1 (racemic) [Example 24, (1RS,2SR)-1-[(3-fluorophenyl)(methyl)amino]-1-(4-methoxyphenyl)-3-(methylamino)propan-2-ol hydrochloride]",92
7,"CCNC[C@@H](O)[C@H](c1cccc(Cl)c1)N(C)c1ccccc1 (racemic) [Example 30, (1RS,2SR)-1-(3-chlorophenyl)-3-(ethylamino)-1-[methyl(phenyl)amino]propan-2-ol hydrochloride]",56
8,"CN(c1ccccc1Cl)[C@@H](c1ccccc1)[C@H](O)CN (racemic) [Example 3, (1RS,2SR)-3-amino-1-[(2-chlorophenyl)(methyl)amino]-1-phenylpropan-2-ol hydrochloride]",45

# Second part, the compound after the results:
row,inhibition at 1 µM [%],SMILES
1,95,"CCNC[C@@H](O)[C@H](c1ccc(OC)cc1)N(C)c1ccc(Cl)cc1 (racemic) [Example 29, (1RS,2SR)-1-[(4-chlorophenyl)(methyl)amino]-3-(ethylamino)-1-(4-methoxyphenyl)propan-2-ol hydrochloride]"
2,97,"CNC[C@@H](O)[C@H](c1ccc(OC)cc1)N(C)c1ccc(Cl)cc1 (racemic) [Example 25, (1RS,2SR)-1-[(4-chlorophenyl)(methyl)amino]-1-(4-methoxyphenyl)-3-(methylamino)propan-2-ol hydrochloride]"
3,86,"COc1cccc(N(C)[C@@H](c2ccccc2)[C@H](O)CN)c1 (racemic) [Example 4, (1RS,2SR)-3-amino-1-[(3-methoxyphenyl)(methyl)amino]-1-phenylpropan-2-ol hydrochloride]"
4,95,"Cc1ccc(N(C)[C@@H](c2ccccc2)[C@H](O)CN(C)C)cc1 (racemic) [Example 32, (1RS,2SR)-3-(dimethylamino)-1-[methyl (4-methylphenyl)amino]-1-phenylpropan-2-ol hydrochloride]"
5,92,"COc1ccc([C@@H]([C@H](O)CN)N(C)c2ccc(Cl)cc2)cc1 (racemic) [Example 6, (1RS,2SR)-3-amino-1-[(4-chlorophenyl)(methyl)amino]-1-(4-methoxyphenyl)propan-2-ol hydrochloride]"
